Measured values published in ChEMBL document CHEMBL5335767, “Synthesis and study of new siderophore analog-ciprofloxacin conjugates with antibiotic activities against Pseudomonas aeruginosa and Burkholderia spp” (Eur J Med Chem, 2023).
≈ marks a conversion by molar mass, not a printed value.

How the values were obtained:
[1] = test system: Pseudomonas aeruginosa; assay: Antibacterial activity against Pseudomonas aeruginosa PAO1 under muller hinton medium by CLSI protocol based microdilution method; type: functional
[2] = test system: Pseudomonas aeruginosa; assay: Antibacterial activity against Pseudomonas aeruginosa PAO1 under succinate minimum medium by CLSI protocol based microdilution method; type: functional
[3] = test system: Pseudomonas aeruginosa; assay: Antibacterial activity against Pseudomonas aeruginosa PAO1 under 1 uM FeCl3 medium by CLSI protocol based microdilution method; type: functional
[4] = test system: Pseudomonas aeruginosa; assay: Antibacterial activity against Pseudomonas aeruginosa PAD07 under muller hinton medium by CLSI protocol based microdilution method; type: functional
[5] = test system: Pseudomonas aeruginosa; assay: Antibacterial activity against Pseudomonas aeruginosa PAD07 under succinate minimum medium by CLSI protocol based microdilution method; type: functional
[6] = test system: Pseudomonas aeruginosa; assay: Antibacterial activity against Pseudomonas aeruginosa PAD07 under 1 uM FeCl3 medium by CLSI protocol based microdilution method; type: functional
[7] = test system: Pseudomonas aeruginosa; assay: Antibacterial activity against Pseudomonas aeruginosa AM85 under muller hinton medium by CLSI protocol based microdilution method; type: functional
[8] = test system: Pseudomonas aeruginosa; assay: Antibacterial activity against Pseudomonas aeruginosa AM85 under succinate minimum medium by CLSI protocol based microdilution method; type: functional
[9] = test system: Pseudomonas aeruginosa; assay: Antibacterial activity against Pseudomonas aeruginosa AM85 under 1 uM FeCl3 medium by CLSI protocol based microdilution method; type: functional
[10] = test system: Burkholderia pseudomallei; assay: Antibacterial activity against Burkholderia pseudomallei BPS2020IRBA001 under muller hinton medium by CLSI protocol based microdilution method; type: functional
[11] = test system: Burkholderia pseudomallei; assay: Antibacterial activity against Burkholderia pseudomallei BPS2020IRBA001 under succinate minimum medium by CLSI protocol based microdilution method; type: functional
[12] = test system: Burkholderia pseudomallei; assay: Antibacterial activity against Burkholderia pseudomallei BPS2020IRBA001 under 1 uM FeCl3 medium by CLSI protocol based microdilution method; type: functional
[13] = test system: Burkholderia pseudomallei; assay: Antibacterial activity against Burkholderia pseudomallei BPS2020IRBA002 under muller hinton medium by CLSI protocol based microdilution method; type: functional
[14] = test system: Burkholderia pseudomallei; assay: Antibacterial activity against Burkholderia pseudomallei BPS2020IRBA002 under succinate minimum medium by CLSI protocol based microdilution method; type: functional
[15] = test system: Burkholderia pseudomallei; assay: Antibacterial activity against Burkholderia pseudomallei BPS2020IRBA002 under 1 uM FeCl3 medium by CLSI protocol based microdilution method; type: functional
[16] = test system: Burkholderia pseudomallei; assay: Antibacterial activity against Burkholderia pseudomallei K96243 under muller hinton medium by CLSI protocol based microdilution method; type: functional
[17] = test system: Burkholderia pseudomallei; assay: Antibacterial activity against Burkholderia pseudomallei K96243 under succinate minimum medium by CLSI protocol based microdilution method; type: functional
[18] = test system: Burkholderia pseudomallei; assay: Antibacterial activity against Burkholderia pseudomallei K96243 under 1 uM FeCl3 medium by CLSI protocol based microdilution method; type: functional
[19] = test system: Burkholderia pseudomallei; assay: Antibacterial activity against Burkholderia pseudomallei BPS2020IRBA003 under muller hinton medium by CLSI protocol based microdilution method; type: functional
[20] = test system: Burkholderia pseudomallei; assay: Antibacterial activity against Burkholderia pseudomallei BPS2020IRBA003 under succinate minimum medium by CLSI protocol based microdilution method; type: functional
[21] = test system: Burkholderia pseudomallei; assay: Antibacterial activity against Burkholderia pseudomallei BPS2020IRBA003 under 1 uM FeCl3 medium by CLSI protocol based microdilution method; type: functional
[22] = test system: Burkholderia pseudomallei; assay: Antibacterial activity against Burkholderia pseudomallei BPS2020IRBA004 under muller hinton medium by CLSI protocol based microdilution method; type: functional
[23] = test system: Burkholderia pseudomallei; assay: Antibacterial activity against Burkholderia pseudomallei BPS2020IRBA005 under muller hinton medium by CLSI protocol based microdilution method; type: functional
[24] = test system: Burkholderia pseudomallei; assay: Antibacterial activity against Burkholderia pseudomallei BPS2020IRBA005 under succinate minimum medium by CLSI protocol based microdilution method; type: functional
[25] = Antibacterial activity against Burkholderia pseudomallei BPS2020IRBA005 under 1 uM FeCl3 medium by CLSI protocol based microdilution method; type: functional; conditions: Burkholderia thailandensis
[26] = test system: Burkholderia thailandensis; assay: Antibacterial activity against Burkholderia thailandensis E264 under muller hinton medium by CLSI protocol based microdilution method; type: functional
[27] = test system: Burkholderia thailandensis; assay: Antibacterial activity against Burkholderia thailandensis E264 under succinate minimum medium by CLSI protocol based microdilution method; type: functional
[28] = test system: Burkholderia thailandensis; assay: Antibacterial activity against Burkholderia thailandensis E264 under 1 uM FeCl3 medium by CLSI protocol based microdilution method; type: functional
[29] = test system: Burkholderia thailandensis; assay: Antibacterial activity against Burkholderia thailandensis E264TS32C10 under muller hinton medium by CLSI protocol based microdilution method; type: functional
[30] = test system: Burkholderia thailandensis; assay: Antibacterial activity against Burkholderia thailandensis E264TS32C10 under succinate minimum medium by CLSI protocol based microdilution method; type: functional
[31] = test system: Burkholderia thailandensis; assay: Antibacterial activity against Burkholderia thailandensis E264TS32C10 under 1 uM FeCl3 medium by CLSI protocol based microdilution method; type: functional
[32] = test system: Burkholderia thailandensis; assay: Antibacterial activity against Burkholderia thailandensis E264TS32C12 under muller hinton medium by CLSI protocol based microdilution method; type: functional
[33] = test system: Burkholderia thailandensis; assay: Antibacterial activity against Burkholderia thailandensis E264TS32C12 under succinate minimum medium by CLSI protocol based microdilution method; type: functional
[34] = test system: Burkholderia thailandensis; assay: Antibacterial activity against Burkholderia thailandensis E264TS32C12 under 1 uM FeCl3 medium by CLSI protocol based microdilution method; type: functional
[35] = test system: Burkholderia thailandensis; assay: Antibacterial activity against Burkholderia thailandensis E264TS32C47 under muller hinton medium by CLSI protocol based microdilution method; type: functional
[36] = test system: Burkholderia thailandensis; assay: Antibacterial activity against Burkholderia thailandensis E264TS32C47 under succinate minimum medium by CLSI protocol based microdilution method; type: functional
[37] = test system: Burkholderia thailandensis; assay: Antibacterial activity against Burkholderia thailandensis E264TS32C47 under 1 uM FeCl3 medium by CLSI protocol based microdilution method; type: functional
[38] = test system: HepG2; assay: Cytotoxicity against human HepG2 cells at 23 ug/ml after 48 hrs by CellTiter-Glo luminescent cell viability assay; type: toxicity, cell-based; conditions: hepg2, 48 h, dose 23 µg/ml

## O=C(O)c1cn(C2CC2)c2cc(N3CCN(C(=O)c4ccc(O)c(O)c4)CC3)c(F)cc2c1=O
[1]
  MIC: 8 µg/mL (≈ 17.1 µM)
[2]
  MIC: 8 µg/mL (≈ 17.1 µM)
[3]
  MIC: 8 µg/mL (≈ 17.1 µM)
[4]
  MIC: 8 µg/mL (≈ 17.1 µM)
[5]
  MIC: 8 µg/mL (≈ 17.1 µM)
[6]
  MIC: 8 µg/mL (≈ 17.1 µM)
[7]
  MIC: > 128 µg/mL
[8]
  MIC: 128 µg/mL (≈ 274 µM)
[9]
  MIC: > 128 µg/mL
[10]
  MIC: > 128 µg/mL
[11]
  MIC: 128 µg/mL (≈ 274 µM)
[12]
  MIC: 128 µg/mL (≈ 274 µM)
[13]
  MIC: > 128 µg/mL
[14]
  MIC: > 128 µg/mL
[15]
  MIC: > 128 µg/mL
[16]
  MIC: 64 µg/mL (≈ 137 µM)
[17]
  MIC: 64 µg/mL (≈ 137 µM)
[18]
  MIC: 64 µg/mL (≈ 137 µM)
[19]
  MIC: 128 µg/mL (≈ 274 µM)
[20]
  MIC: 128 µg/mL (≈ 274 µM)
[21]
  MIC: 128 µg/mL (≈ 274 µM)
[22]
  MIC: 128 µg/mL (≈ 274 µM)
[23]
  MIC: > 128 µg/mL
[24]
  MIC: > 128 µg/mL
[25]
  MIC: > 128 µg/mL
[26]
  MIC: 128 µg/mL (≈ 274 µM)
[27]
  MIC: 64 µg/mL (≈ 137 µM)
[28]
  MIC: 128 µg/mL (≈ 274 µM)
[29]
  MIC: > 128 µg/mL
[30]
  MIC: > 128 µg/mL
[31]
  MIC: > 128 µg/mL
[32]
  MIC: > 128 µg/mL
[33]
  MIC: > 128 µg/mL
[34]
  MIC: > 128 µg/mL
[35]
  MIC: > 128 µg/mL
[36]
  MIC: > 128 µg/mL
[37]
  MIC: > 128 µg/mL
[38]
  Activity: Non-Toxic
